We go through two substances from patent US20250204515A1, “Heparanase Inhibition for Graft Protection” (University of Pittsburgh - Of the Commonwealth System of …, priority 2022, published 2025).

“Also recorded” adds a separate entry of the source.

One assay deals with T1, heparanase (Rattus norvegicus, UniProt Q71RP1).
T1 construct: isolated lung tissue lysate was applied to biotinylated heparan sulfate-coated wells; from tissue; host or cells: rat (Lewis) lung tissue lysate
T1 sequence (Q71RP1 29-536): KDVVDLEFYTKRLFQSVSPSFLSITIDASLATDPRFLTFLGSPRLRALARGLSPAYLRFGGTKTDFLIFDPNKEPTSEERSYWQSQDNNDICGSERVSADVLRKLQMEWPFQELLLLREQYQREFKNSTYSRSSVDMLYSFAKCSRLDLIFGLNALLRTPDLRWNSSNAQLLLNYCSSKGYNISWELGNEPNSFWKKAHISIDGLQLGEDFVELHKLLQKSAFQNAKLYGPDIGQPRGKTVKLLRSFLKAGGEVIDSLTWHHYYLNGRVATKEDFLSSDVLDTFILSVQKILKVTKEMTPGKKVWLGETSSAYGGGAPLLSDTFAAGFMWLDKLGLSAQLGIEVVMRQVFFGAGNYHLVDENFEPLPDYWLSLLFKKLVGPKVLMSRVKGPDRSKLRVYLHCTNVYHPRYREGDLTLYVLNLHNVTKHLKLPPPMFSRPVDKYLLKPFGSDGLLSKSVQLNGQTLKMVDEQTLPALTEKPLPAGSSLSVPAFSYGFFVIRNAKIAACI
Nature of the assay: Heparanase activity assay in rat lung tissue after 1 h warm ischemia. The format is in vivo. Conditions: rat donors given heparin 300 IU or NAH 300 μg i.v. 5 min before 1 h warm ischemia; vs untreated control. How it is done:
Models of lungs with damaged or preserved eGC and rat orthotopic left lung transplantation. Rats were sedated with 4% isoflurane via inhalation for tracheostomy and then placed on a ventilator. They received 5% isoflurane with 100% O2 via inhalation through the ventilator for 15 min to induce a deep state of anesthesia that causes arrest of spontaneous breathing. The rats were disconnected from the ventilator 5 min after intravenous administration of heparin (300 IU), a heparin derivative without anti-coagulant properties (300 μg; N-acetyl heparin (NAH) (Millipore Sigma, Burlington, MA)), or saline (300 μl, control) through the jugular vein. Cardiac activity and blood oxygen saturation were monitored after disconnection from ventilator until cardiac arrest. One hour after induction of ischemia, a median thoracotomy was performed, and blood was flushed from the lungs with cold, low potassium dextran solution (PERFADEX; XVIVO Perfusion AB) through the pulmonary artery. […]
Heparanase activity assay. Heparanase activity was measured using a heparanase assay kit (AMS Bio-technology (Europe) Ltd., Abingdon, UK) to quantitate heparan sulfate degradation according to the manufacturer's instructions. […] After incubation and washing, the remaining heparan sulfate was detected using a biotin-streptavidin-HRP system.

In another assay the test system is rat lungs. Kind of assay: Ex vivo lung perfusion (EVLP) of donor-pretreated rat lungs. The format is in vivo. The conditions noted are these: donor pre-treatment; for pulmonary vascular resistance (PVR) during EVLP: 3 h normothermic EVLP; for syndecan-1 concentration in EVLP perfusate: during EVLP, vs increasing levels in control; for Evans blue dye (EBD) penetration into lung parenchyma: last 30 min of EVLP, vs control. How it is done: Ex vivo lung perfusion in rats. EVLP was performed using a commercially available rodent EVLP system (IPL-2 Isolated Perfused Rat or Guinea Pig Lung System; Harvard Apparatus, Holliston, MA). After procurement, the lungs were kept under cold ischemia for 1 h, then placed on the EVLP system, ventilated with air warmed to 37′, and perfused with 100 ml STEEN solution (XVIVO Perfusion AB) that was deoxygenated with 6% O2, 8% CO2 and balanced N2 and supplemented with 50 mg of methylprednisolone (Solu-Medrol; Pfizer, Inc.) and 50 mg of cephalosporin (Cefazolin; West-Ward Pharmaceuticals Corp., Eatontown, NJ). […] Pulmonary artery pressure, peak airway pressure, and airway flow were monitored continuously, and lung compliance and PVR were calculated every hour.
Assessment of endothelial barrier function. After 3 h of EVLP, 6 mg of Evans blue dye (EBD, Millipore Sigma) was administered into the perfusate to assess vascular endothelial permeability. After 30 min of perfusion, the lung vascular bed was rinsed with 20 ml of PBS and pieces of lungs were incubated overnight in formamide (Millipore Sigma) at 60° C. Absorbance of the extractant was measured at 620 nm to quantitate the amount of EBD that had permeabilized into the tissue and was normalized to dry-tissue weight.
Determination of glycocalyx components in rat lung grafts. For rat lung tissue, syndecan-1 released into the perfusate during EVLP was measured with a rat-specific ELISA (Immunotag Rat SDC1 (Syndecan-1) ELISA, G-Biosciences, St. Louis, MO). Glycocalyx glycosaminoglycans (GAGs) were quantitated using the 1,9-dimethylmethylene blue (DMMB, Millipore Sigma) method with modifications. A 1 L solution of DMMB (pH˜3.0) was prepared by dissolving 16 mg DMMB in distilled H2O containing 3.04 g/A glycine, 1.6 g/A NaCl and 95 ml 0.1 M acetic acid. Briefly, 1 ml DMMB solution was added to 20 μl lung tissue lysate then incubated at room temperature for 1 h on a tube rotator. The tubes were then centrifuged at 14,000 rpm for 15 min at 4° C. Supernatants were carefully decanted, 200 μL sodium lauryl sulfate buffer (2.08 mM) was added to each pellet, and the tubes were vortexed until GAG-DMMB pellets were no longer visible. GAG content in each sample was measured spectrophotometrically at 656 nm.

In a further assay the test system is IL-6, IL-1β, MMP-9 mRNA. Kind of assay: Real-time RT-PCR in lung grafts 2 h after transplantation. The format is in vivo, rat. The conditions noted are these: for IL-1β mRNA expression / IL-6 mRNA expression: graft 2 h after reperfusion, vs control lung grafts; for MMP-9 mRNA expression: graft 2 h after transplantation, vs control. The procedure:
Real-time RT PCR. Lung tissues were collected after EVLP or 2 h after transplantation. Total RNA was extracted from the graft using TRIzol reagent (Life Technologies, Inc. Grand Island, NY) according to the manufacturer's instructions and purified by ethanol precipitation. RNA content was measured using 260/280 nm UV spectrophotometry.

For the next assay, the system named is MMP-2. Nature of the assay: Gelatin zymography of EVLP perfusate, donor-pretreated lungs. The format is in vivo, rat. The conditions noted are these: donor pre-treatment, vs control. The procedure: Gelatin zymography. Gelatin zymography was performed to measure secreted MMP-2 and MMP-9 activity in EVLP perfusate and to measure endogenous MMP-2 and 9 activity in lung tissue before transplantation. Briefly, lung tissue before transplant was homogenized in cold PBS. Perfusate samples (20 μl) or tissue lysates were mixed with 2× non-reducing SDS sample buffer were loaded onto a 10% polyacrylamide gel containing 0.1% SDS and 0.1% gelatin. After electrophoresis to separate the proteins, the gel was washed in renaturing buffer (Novex Invitrogen) at room temperature, and then incubated in developing buffer (Novex Invitrogen) at 37° C. overnight (˜16-18 h). The next day, the gel was stained with Coomassie Brilliant Blue R-250 (Bio-Rad) and imaged (ChemiDoc, Bio-Rad). Enzyme activity, visualized as clear bands against the dark blue background, was quantified using Image-J (NIH).

With N-acetyl heparin [NAH], the “heparanase activity in lung tissue” value on heparanase is “inhibited”. In the assay with rat lungs, the “pulmonary vascular resistance (PVR) during EVLP” value is given as “little to no increase”, the “syndecan-1 concentration in EVLP perfusate” value is recorded as “maintained at a constant level” and the “Evans blue dye (EBD) penetration into lung parenchyma” value is reported as “significantly less EBD penetration”. Moreover, in the assay on IL-6, IL-1β, MMP-9 mRNA, the “IL-1β mRNA expression” value is recorded as “significantly lower”, the “IL-6 mRNA expression” value was “significantly lower” and the “MMP-9 mRNA expression” value is on record as “significantly lower”. The “MMP-2 activity in EVLP perfusate” value in the assay on MMP-2 is reported as “significantly less”.
Turning to heparin, the “heparanase activity in lung tissue” value on heparanase is listed as “decreased; also recorded: inhibited”. In the assay on rat lungs, the “pulmonary vascular resistance (PVR) during EVLP” value was “little to no increase”, the “syndecan-1 concentration in EVLP perfusate” value is on record as “maintained at a constant level” and the “Evans blue dye (EBD) penetration into lung parenchyma” value is recorded as “significantly less EBD penetration”. Also, in the assay with IL-6, IL-1β, MMP-9 mRNA, the “IL-1β mRNA expression” value was “significantly lower”, the “IL-6 mRNA expression” value is reported as “significantly lower” and the “MMP-9 mRNA expression” value was “significantly lower”. Moreover, in the assay on MMP-2, the “MMP-2 activity in EVLP perfusate” value is on record as “significantly less”.
